Measurements as given in PMC9415608, “Design, Synthesis and Biological Investigation of 2-Anilino Triazolopyrimidines as Tubulin Polymerization Inhibitors with Anticancer Activities” (Pharmaceuticals, 2022).
Like-named read-outs stand apart in the source and are kept apart here.

Assays:
[1] = system: MDA-MB-231, HeLa, A549 and HT-29 cancer cell lines; test: Antiproliferative activity stated across the panel of cancer cell lines; type: cell-based, human; settings: for IC50: Homo sapiens, read-out: IC50
Description: (§1) All the cell lines used in this paper were of human origin and purchased from the American Type Culture Collection (ATCC, Manassas, VA, USA). Colon adenocarcinoma (HT-29), non-small cell lung carcinoma (A549), cervix carcinoma (HeLa) and breast adenocarcinoma (MDA-MB-231) cells were grown in RPMI (HT29) or DMEM (A549, HeLa, MDA-MB-231) medium (Gibco, Milano, Italy). Both media were supplemented with 115 units/mL of penicillin G (Gibco, Milano, Italy), 115 μg/mL of streptomycin (Invitrogen, Milano, Italy) and 10% fetal bovine serum (Invitrogen, Milano, Italy). All cell lines were grown at 37 °C in a humidified 5% CO2 atmosphere. The cells were grown in 2 mL of complete medium.
(§2) Stock solutions were prepared for each compound by dissolving in DMSO at the final concentration of 10 mM.
(§3) The cells were seeded in 96-well plates at the appropriate density for each cell line. The respective cell line densities used for the antiproliferative assay were HeLa and HT29 5000 cells/well, A549 4000 cells/well and MDA-MB-231 7000 cells/well. The total volume of medium was 100 µL. After 24 h, the cells were treated by performing serial 5-fold dilutions of the tested compounds starting from a concentration of 10 μM. All experimental conditions were tested in triplicate for statistical analysis. After 72 h of incubation, 10 μL of 100 μg/mL resazurin solution was added to each well and the plate was re-incubated for 3–4 h. The fluorescence of the wells in each plate was monitored using a Spark 10M spectrophotometer (Tecan Group Ltd., Mannedorf, Switzerland) with a 535 nm excitation wavelength and a 600 nm emission wavelength.

MDA-MB-231 = test: In vitro cell growth inhibition, resazurin viability assay; type: cell-based, human; settings: Homo sapiens, MDA-MB-231; 72 h, resazurin; mean ± SE
Description: as §1, §2, §3

HeLa = test: as above; type: cell-based, human; settings: for IC50: Homo sapiens, 72 h, resazurin, mean ± SE
Description: as §1, §2, §3

A549 = test: as above; type: cell-based, human; settings: Homo sapiens, A549; 72 h, resazurin; mean ± SE
Description: as §1, §2, §3

HT29 = test: as above; type: cell-based, human; settings: for IC50: Homo sapiens, HT-29, 72 h, resazurin, mean ± SE
Description: as §1, §2, §3

[2] = stated for the panel of cancer cell lines as a whole

Row | SMILES | IC50 [1, 2] [µM] | IC50 (MDA-MB-231) [µM] | IC50 (HeLa) [µM] | IC50 (A549) [µM] | IC50 (HT29) [µM] | melting point [°C] | fold reduction in antiproliferative activity relative to 3d ([1]; range over cell lines) | IC50 ([1]; against three of the four cancer cell lines (not HT-29)) [µM] | fold reduction in potency relative to 3a (HT29; HT-29 cells) [fold] | fold more active than 3n (HeLa; HeLa cells) [fold] | fold more active than 3n (HT29; HT-29 cells) [fold]
1 | COc1cc(-c2ccnc3nc(NCCCc4ccccc4)nn23)cc(OC)c1OC [Compound 3v, N-(3-Phenylpropyl)-7-(3,4,5-trimethoxyphenyl)-[1,2,4]triazolo[1,5-a]pyrimidin-2-amine] | > 10 | > 10 | > 10 | > 10 | > 10 | 98 to 100 | – | – | – | – | –
2 | COc1cc(-c2ccnc3nc(NCc4ccc(Cl)cc4)nn23)cc(OC)c1OC [Compound 3q, N-(4-Chlorobenzyl)-7-(3,4,5-trimethoxyphenyl)-[1,2,4]triazolo[1,5-a]pyrimidin-2-amine] | – | > 10 | > 10 | > 10 | > 10 | 171 to 173 | – | – | – | – | –
3 | COc1cc(-c2ccnc3nc(Nc4cccc(C)c4)nn23)cc(OC)c1OC [Compound 3e, N-(m-Tolyl)-7-(3,4,5-trimethoxyphenyl)-[1,2,4]triazolo[1,5-a]pyrimidin-2-amine] | – | > 10 | 0.39 ± 0.02 | 1.87 ± 0.17 | 1.38 ± 0.09 | 229 to 230 | 10–46 fold | – | – | – | –
4 | COc1cc(-c2ccnc3nc(Nc4cccnc4)nn23)cc(OC)c1OC [Compound 3b, N-(Pyridin-3-yl)-7-(3,4,5-trimethoxyphenyl)-[1,2,4]triazolo[1,5-a]pyrimidin-2-amine] | – | > 10 | > 10 | > 10 | 3.42 ± 0.41 | 172 to 174 | – | > 10 | 3 | – | –
5 | COc1cc(-c2ccnc3nc(NCCc4ccccc4)nn23)cc(OC)c1OC [Compound 3u, N-Phenethyl-7-(3,4,5-trimethoxyphenyl)-[1,2,4]triazolo[1,5-a]pyrimidin-2-amine] | > 10 | 8.7 ± 1.1 | > 10 | > 10 | 6.74 ± 0.5 | 138 to 139 | – | – | – | – | –
6 | COc1cc(-c2ccnc3nc(Nc4ccc5c(c4)OCCO5)nn23)cc(OC)c1OC [Compound 3o, N-(2,3-Dihydrobenzo[b][1,4]dioxin-6-yl)-7-(3,4,5-trimethoxyphenyl)-[1,2,4]triazolo[1,5-a]pyrimidin-2-amine] | – | > 10 | 0.29 ± 0.031 | 2.42 ± 0.12 | 0.67 ± 0.12 | 212 to 214 | – | – | – | 3 | 2
7 | COc1ccc(CNc2nc3nccc(-c4cc(OC)c(OC)c(OC)c4)n3n2)cc1 [Compound 3s, N-(4-Methoxybenzyl)-7-(3,4,5-trimethoxyphenyl)-[1,2,4]triazolo[1,5-a]pyrimidin-2-amine] | > 10 | > 10 | > 10 | > 10 | > 10 | 190 to 192 | – | – | – | – | –
8 | COc1cc(-c2ccnc3nc(NCc4ccc(C)cc4)nn23)cc(OC)c1OC [Compound 3r, N-(4-Methylbenzyl)-7-(3,4,5-trimethoxyphenyl)-[1,2,4]triazolo[1,5-a]pyrimidin-2-amine] | > 10 | > 10 | > 10 | > 10 | > 10 | 156 to 158 | – | – | – | – | –
9 | COc1cc(-c2ccnc3nc(Nc4ccccc4)nn23)cc(OC)c1OC [Compound 3a, N-Phenyl-7-(3,4,5-trimethoxyphenyl)-[1,2,4]triazolo[1,5-a]pyrimidin-2-amine] | – | – | – | – | – | 235 to 236 | – | – | – | – | –
